“Also recorded” adds a separate entry of the source.
Key:
Type in all cases: cell-based
[1] = tested on: melanocyte-containing, 3-D cultured skin model (MEL300A); experiment: Melanin production-suppressing effect in 3-D cultured skin model stimulated with ET-1 and SCF; conditions: 14 days; for Effect on melanin content / melanin production (in words): 3-D skin model
Procedure: (§1) A melanocyte-containing, 3-D cultured skin model (MEL300A, KURABO INDUSTRIES LTD.) was cultured at 37° C. under 5% CO2 using an EPI-100-NMM113 medium to which endothelin-1 (ET-1) as a melanocyte activator and SCF (stem cell growth factor) were each added at a final concentration of 10 nM. From the first day of the culture, the baeomycesic acid was added at a final concentration of 50 μM (N=2). The medium was refreshed once every three days. After 14 days, the skin model was washed with PBS and photographed. Subsequently, the cell respiration activity was measured using the Alamar Blue reagent to confirm that the final concentration was not cytotoxic (the results are not shown).
Subsequently, the skin model cup was washed with PBS, and the skin sheet was removed with tweezers, transferred into a tube, and washed three times with PBS. The skin sheet was washed three times with 50% ethanol and twice with 100% ethanol, and then allowed to stand overnight at room temperature, so that it was completely dried. After 200 μL of 2 M NaOH was added, the skin sheet was dissolved at 100° C. A supernatant obtained by centrifugation of the solution was measured for absorbance at a wavelength of 405 nm, and then the melanin content was calculated. The melanin content was expressed as a relative value (%) when the melanin content in a control was normalized as 100. In the control used, ethanol or a 10 to 95 v/v % aqueous ethanol solution was added at a final concentration of 0.1 to 0.5 v/v %.

[2] = tested on: endothelin (ET-1)-induced rise in intracellular calcium concentration in normal human neonatal epidermal melanocytes (NHEMs); experiment: Endothelin action-suppressing effect: endothelin-induced rise in intracellular calcium (Fluo4-AM, FDSS); conditions: for Effect of suppressing endothelin action (in words): 50 μM; for Rate of rise in intracellular Ca concentration: pretreated 1 minute, ET-1 100 nM, relative value, control = 100, N=6
Procedure: Normal human neonatal epidermal melanocytes (NHEMs, KURABO INDUSTRIES LTD.) were seeded at 3×10^4 cells/well (200 μL/well) in 96-well plates for use in fluorometry, and cultured at 37° C. under 5% CO2. The medium used was PMA (−), growth additive (HMGS)-containing Medium 254.
After culture for 3 days, the medium was removed from the culture plate by decantation, and replaced with an assay buffer containing a reagent Fluo4-AM for intracellular Ca^2++ measurement, which was followed by incubation at 37° C. for 1 hour. Subsequently, 20 seconds after the start of the measurement, the compound at a predetermined concentration was pretreated for 1 minute in a FDSS (Functional Drug Screening System) instrument, and then endothelin (ET-1, 100 nM final concentration) as a ligand was added to the wells. Fluo4-AM fluorescence was detected at the measurement wavelengths Ex. 480 nm and Em. 540 nm over time from the start of the measurement to 5 minutes later.
For each compound, the rate (%) of rise in intracellular calcium (calcium ion) concentration was calculated as a relative value (%) when an increase (Max ratio−Min ratio) in Fluo4-AM fluorescence in a control was normalized as 100. The suppressing effect of endothelin action was evaluated based on the calculated rate. In the control used, ethanol or a 10 to 95 v/v % aqueous ethanol solution was added at a final concentration of 0.1 to 0.5 v/v %. […]
The compound prepared as described above was pretreated at the final concentration shown in Table 3 and subjected to the assay system. Then, the rate of endothelin-induced rise in Ca concentration was calculated (N=6). […]

[3] = tested on: melanocyte-containing, 3-D cultured skin model (MEL300A); experiment: Cell respiration activity (Alamar Blue) of the skin model; conditions: final concentration 50 μM, after 14 days; results not shown
Procedure: as §1

Row | Structure (SMILES) | Reduction in melanin content in the skin tissue relative to the control system ([1]; 50 μM, ET-1 and SCF each 10 nM, FIG. 3, N=2) | Skin colour of the skin sheet (photograph, FIG. 2) ([1]; 50 μM, compared with the control system) | Effect on melanin content / melanin production (in words) ([1]; ET-1 and SCF each 10 nM) | Effect of suppressing endothelin action (in words) [2] | Rate of rise in intracellular Ca concentration ([2]; compound 50 μM) [%] | Cytotoxicity (cell respiration activity, Alamar Blue) [3] | Suppression of endothelin-induced rise in intracellular Ca concentration ([2]; compound 50 μM, relative to control)
1 | COc1cc(C)c(C(=O)Oc2cc(C)c(C(=O)O)c(O)c2C)c(O)c1C=O [Baeomycesic Acid, baeomycesic acid] | at least 40% | light skin color and suppressed skin blackening | significantly suppresses melanin production | significantly suppresses the rise in intracellular Ca concentration | 52.7 | not cytotoxic | 
2 | COc1cc(C)c(C(=O)Oc2cc(C)c(C(=O)O)c(O)c2C)c(OC)c1C [Diffractaic Acid, Diffractaic acid] |  |  |  |  | 28.0 |  | 
3 | COc1cc(C)c(C(=O)Oc2cc(C)c(C(=O)O)c(O)c2C)c(O)c1C [Barbatic Acid, Barbatic acid] |  |  |  |  | 38.4 |  | 
4 | COc1cc(C)c(C(=O)Oc2cc(C)c(C(=O)O)c(O)c2C)c(O)c1C(=O)O [Squamatic Acid, squamatic acid, reference compound] |  |  | no significant reduction in melanin content; also recorded: almost no effect of suppressing melanin production | almost no effect of suppressing endothelin action | 95.9 |  | about 4%

From patent US9592183B2, “Inhibitor of endothelin action and skin-whitening agent” (Kao Corporation, priority 2010, dated 2017)
